Measurements as given in article PMC9851200, “Multiparameter phenotypic screening for endogenous TFEB and TFE3 translocation identifies novel chemical series modulating lysosome function” (Autophagy, 2022).
Where two headings read alike, the source gives them in different places.

How the values were obtained:
Test in all cases: biochemical
Assay type in all cases: binding
[1] = molecular target: cellular kinases of SH-SY5Y cells (Homo sapiens, UniProt Q16584); conditions: 2µM; SH-SY5Y cells; labeling site Lys2; peptide DLKSNNILLLQPIESDDMEHK
Source text: (§1) As KINOMEscan is an in vitro assay, and as different cell types have variable kinase expression profiles we sought to determine the kinase binding profile in our SH-SY5Y TFEB-relocalization cell model. […] Bound kinases were pulled down and analyzed by mass spectrometry to determine the in situ kinase binding profile for each compound.

[2] = molecular target: T1, cellular kinases of SH-SY5Y cells (Homo sapiens, UniProt Q86SG6); conditions: 2µM; SH-SY5Y cells; Labeling Site Lys2; DLKTQNILLDK; read-out: KiNativ in-cell binding, % Inhibition, NEK9/NEK8
T1 construct: endogenous in cells; host or cells: SH-SY5Y
Source text: as §1

[3] = molecular target: T2, cellular kinases of SH-SY5Y cells (Homo sapiens, UniProt Q9UHD2); conditions: 2µM; SH-SY5Y cells; labeling site Lys1; peptide TGDLFAIKVFNNISFLRPVDVQMR
T2 construct: endogenous in cells; host or cells: SH-SY5Y
Source text: as §1

[4] = molecular target: T3, cellular kinases of SH-SY5Y cells (Homo sapiens, UniProt O14920); conditions: 2µM; SH-SY5Y cells; Labeling Site Lys2; DLKPENIVLQQGEQR; read-out: KiNativ in-cell binding, % Inhibition, IKBKB/IKKb
T3 construct: endogenous in cells; host or cells: SH-SY5Y
Source text: as §1

[5] = molecular target: T4, cellular kinases of SH-SY5Y cells (Homo sapiens, UniProt O75385); conditions: 2µM; SH-SY5Y cells; Labeling Site Lys2; DLKPQNILLSNPAGR; read-out: KiNativ in-cell binding, % Inhibition, ULK1
T4 construct: endogenous in cells; host or cells: SH-SY5Y
Source text: as §1

[6] = molecular target: T5, cellular kinases of SH-SY5Y cells (Homo sapiens, UniProt P48426); conditions: 2µM; SH-SY5Y cells; Labeling Site ATP; AKELPTLKDNDFINEGQK; read-out: KiNativ in-cell binding, % Inhibition, PIP4K2A
T5 construct: endogenous in cells; host or cells: SH-SY5Y
Source text: as §1

[7] = molecular target: T6, cellular kinases of SH-SY5Y cells (Homo sapiens, UniProt Q9C0K7); conditions: 2µM; SH-SY5Y cells; labeling site Lys1; peptide HTPTGTLVTIKITNLENCNEER
T6 construct: endogenous in cells; host or cells: SH-SY5Y
Source text: as §1

[8] = molecular target: cellular kinases of SH-SY5Y cells (Homo sapiens, UniProt Q13163); conditions: 2µM; SH-SY5Y cells; Labeling Site Lys2; DVKPSNMLVNTR; read-out: KiNativ in-cell binding, % Inhibition, MAP2K5
Source text: as §1

[9] = molecular target: cellular kinases of SH-SY5Y cells (Homo sapiens, UniProt P29323); conditions: 2µM; SH-SY5Y cells; Labeling Site Activation Loop; FLEDDTSDPTYTSALGGKIPIR; read-out: KiNativ in-cell binding, % Inhibition, EphB2
Source text: as §1

[10] = molecular target: cellular kinases of SH-SY5Y cells (Homo sapiens, UniProt P07948); conditions: 2µM; SH-SY5Y cells; labeling site Lys1; peptide VAVKTLKPGTMSVQAFLEEANLMK
Source text: as §1

[11] = molecular target: cellular kinases of SH-SY5Y cells (Homo sapiens, UniProt Q5S007); conditions: 2µM; SH-SY5Y cells; Labeling Site Lys2; DLKPHNVLLFTLYPNAAIIAK; read-out: KiNativ in-cell binding, % Inhibition, LRRK2
Source text: as §1

[12] = molecular target: T7, cellular kinases of SH-SY5Y cells (Homo sapiens, UniProt Q13188); conditions: 2µM; SH-SY5Y cells; Labeling Site Lys1; ESGQVVAIKQVPVESDLQEIIK; read-out: KiNativ in-cell binding, % Inhibition, STK3/MST2
T7 construct: endogenous in cells; host or cells: SH-SY5Y
Source text: as §1

[13] = molecular target: T8, cellular kinases of SH-SY5Y cells (Homo sapiens, UniProt Q96GX5); conditions: 2µM, SH-SY5Y cells, read-out: KiNativ in-cell binding, % Inhibition, MASTL
T8 construct: endogenous in cells; host or cells: SH-SY5Y
Source text: as §1

[14] = molecular target: cellular kinases of SH-SY5Y cells (Homo sapiens, UniProt Q8TDX7); conditions: 2µM; SH-SY5Y cells; labeling site Lys1; peptide AACLLDGVPVALKK
Source text: as §1

[15] = molecular target: cellular kinases of SH-SY5Y cells (Homo sapiens, UniProt P09769); conditions: 2µM; SH-SY5Y cells; Labeling Site Activation Loop; LIKDDEYNPCQGSKFPIK; read-out: KiNativ in-cell binding, % Inhibition, FGR
Source text: as §1

[16] = molecular target: T9, cellular kinases of SH-SY5Y cells (Homo sapiens, UniProt P78356); conditions: 2µM; SH-SY5Y cells; Labeling Site ATP; AKDLPTFKDNDFLNEGQK; read-out: KiNativ in-cell binding, % Inhibition, PIP4K2B
T9 construct: endogenous in cells; host or cells: SH-SY5Y
Source text: as §1

[17] = molecular target: T10, cellular kinases of SH-SY5Y cells (Homo sapiens, UniProt Q96PY6); conditions: 2µM; SH-SY5Y cells; Labeling Site Lys2; DIKSQNIFLTK; read-out: KiNativ in-cell binding, % Inhibition, NEK1
T10 construct: endogenous in cells; host or cells: SH-SY5Y
Source text: as §1

[18] = molecular target: T11, cellular kinases of SH-SY5Y cells (Homo sapiens, UniProt P23743)
T11 construct: endogenous in cells; host or cells: SH-SY5Y
Source text: as §1

[19] = molecular target: T12, cellular kinases of SH-SY5Y cells (Homo sapiens, UniProt O60307); conditions: 2µM; SH-SY5Y cells; Labeling Site Lys2; DLKPDNLLITSLGHIK; read-out: KiNativ in-cell binding, % Inhibition, MAST3
T12 construct: endogenous in cells; host or cells: SH-SY5Y
Source text: as §1

[20] = molecular target: T13, cellular kinases of SH-SY5Y cells (Homo sapiens, UniProt Q15131); conditions: 2µM; SH-SY5Y cells; labeling site Lys2; peptide DLKVSNLLMTDK
T13 construct: endogenous in cells; host or cells: SH-SY5Y
Source text: as §1

[21] = molecular target: T14, cellular kinases of SH-SY5Y cells (Homo sapiens, UniProt P51956); conditions: 2µM; SH-SY5Y cells; Labeling Site Activation Loop; SKNIFLTQNGK; read-out: KiNativ in-cell binding, % Inhibition, NEK3
T14 construct: endogenous in cells; host or cells: SH-SY5Y
Source text: as §1

T8 sequence (Q96GX5 whole entry): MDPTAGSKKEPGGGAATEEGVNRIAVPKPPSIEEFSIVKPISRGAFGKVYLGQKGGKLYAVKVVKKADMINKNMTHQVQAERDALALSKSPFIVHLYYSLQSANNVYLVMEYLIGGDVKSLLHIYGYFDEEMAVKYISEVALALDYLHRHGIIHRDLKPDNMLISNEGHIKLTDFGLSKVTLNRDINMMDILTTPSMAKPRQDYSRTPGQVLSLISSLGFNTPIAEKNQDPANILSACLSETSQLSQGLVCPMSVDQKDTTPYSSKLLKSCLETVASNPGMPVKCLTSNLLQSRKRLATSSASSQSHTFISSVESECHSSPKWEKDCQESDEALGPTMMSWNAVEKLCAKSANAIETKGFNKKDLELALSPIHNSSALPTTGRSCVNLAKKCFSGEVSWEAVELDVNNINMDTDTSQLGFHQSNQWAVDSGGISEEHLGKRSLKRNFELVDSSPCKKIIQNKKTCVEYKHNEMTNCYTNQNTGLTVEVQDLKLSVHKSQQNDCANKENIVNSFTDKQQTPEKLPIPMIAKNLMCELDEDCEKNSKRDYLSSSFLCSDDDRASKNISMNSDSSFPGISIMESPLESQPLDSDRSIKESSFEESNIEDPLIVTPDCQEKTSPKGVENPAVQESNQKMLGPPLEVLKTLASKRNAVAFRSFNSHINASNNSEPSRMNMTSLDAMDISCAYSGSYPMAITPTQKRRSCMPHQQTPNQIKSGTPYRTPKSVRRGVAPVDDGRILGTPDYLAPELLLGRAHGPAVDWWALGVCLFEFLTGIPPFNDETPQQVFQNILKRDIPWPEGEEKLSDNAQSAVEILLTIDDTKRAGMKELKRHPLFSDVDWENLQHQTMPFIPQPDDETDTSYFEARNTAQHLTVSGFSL
Chain of cellular kinases of SH-SY5Y cells (Homo sapiens, UniProt Q5S007) (Q5S007 whole entry): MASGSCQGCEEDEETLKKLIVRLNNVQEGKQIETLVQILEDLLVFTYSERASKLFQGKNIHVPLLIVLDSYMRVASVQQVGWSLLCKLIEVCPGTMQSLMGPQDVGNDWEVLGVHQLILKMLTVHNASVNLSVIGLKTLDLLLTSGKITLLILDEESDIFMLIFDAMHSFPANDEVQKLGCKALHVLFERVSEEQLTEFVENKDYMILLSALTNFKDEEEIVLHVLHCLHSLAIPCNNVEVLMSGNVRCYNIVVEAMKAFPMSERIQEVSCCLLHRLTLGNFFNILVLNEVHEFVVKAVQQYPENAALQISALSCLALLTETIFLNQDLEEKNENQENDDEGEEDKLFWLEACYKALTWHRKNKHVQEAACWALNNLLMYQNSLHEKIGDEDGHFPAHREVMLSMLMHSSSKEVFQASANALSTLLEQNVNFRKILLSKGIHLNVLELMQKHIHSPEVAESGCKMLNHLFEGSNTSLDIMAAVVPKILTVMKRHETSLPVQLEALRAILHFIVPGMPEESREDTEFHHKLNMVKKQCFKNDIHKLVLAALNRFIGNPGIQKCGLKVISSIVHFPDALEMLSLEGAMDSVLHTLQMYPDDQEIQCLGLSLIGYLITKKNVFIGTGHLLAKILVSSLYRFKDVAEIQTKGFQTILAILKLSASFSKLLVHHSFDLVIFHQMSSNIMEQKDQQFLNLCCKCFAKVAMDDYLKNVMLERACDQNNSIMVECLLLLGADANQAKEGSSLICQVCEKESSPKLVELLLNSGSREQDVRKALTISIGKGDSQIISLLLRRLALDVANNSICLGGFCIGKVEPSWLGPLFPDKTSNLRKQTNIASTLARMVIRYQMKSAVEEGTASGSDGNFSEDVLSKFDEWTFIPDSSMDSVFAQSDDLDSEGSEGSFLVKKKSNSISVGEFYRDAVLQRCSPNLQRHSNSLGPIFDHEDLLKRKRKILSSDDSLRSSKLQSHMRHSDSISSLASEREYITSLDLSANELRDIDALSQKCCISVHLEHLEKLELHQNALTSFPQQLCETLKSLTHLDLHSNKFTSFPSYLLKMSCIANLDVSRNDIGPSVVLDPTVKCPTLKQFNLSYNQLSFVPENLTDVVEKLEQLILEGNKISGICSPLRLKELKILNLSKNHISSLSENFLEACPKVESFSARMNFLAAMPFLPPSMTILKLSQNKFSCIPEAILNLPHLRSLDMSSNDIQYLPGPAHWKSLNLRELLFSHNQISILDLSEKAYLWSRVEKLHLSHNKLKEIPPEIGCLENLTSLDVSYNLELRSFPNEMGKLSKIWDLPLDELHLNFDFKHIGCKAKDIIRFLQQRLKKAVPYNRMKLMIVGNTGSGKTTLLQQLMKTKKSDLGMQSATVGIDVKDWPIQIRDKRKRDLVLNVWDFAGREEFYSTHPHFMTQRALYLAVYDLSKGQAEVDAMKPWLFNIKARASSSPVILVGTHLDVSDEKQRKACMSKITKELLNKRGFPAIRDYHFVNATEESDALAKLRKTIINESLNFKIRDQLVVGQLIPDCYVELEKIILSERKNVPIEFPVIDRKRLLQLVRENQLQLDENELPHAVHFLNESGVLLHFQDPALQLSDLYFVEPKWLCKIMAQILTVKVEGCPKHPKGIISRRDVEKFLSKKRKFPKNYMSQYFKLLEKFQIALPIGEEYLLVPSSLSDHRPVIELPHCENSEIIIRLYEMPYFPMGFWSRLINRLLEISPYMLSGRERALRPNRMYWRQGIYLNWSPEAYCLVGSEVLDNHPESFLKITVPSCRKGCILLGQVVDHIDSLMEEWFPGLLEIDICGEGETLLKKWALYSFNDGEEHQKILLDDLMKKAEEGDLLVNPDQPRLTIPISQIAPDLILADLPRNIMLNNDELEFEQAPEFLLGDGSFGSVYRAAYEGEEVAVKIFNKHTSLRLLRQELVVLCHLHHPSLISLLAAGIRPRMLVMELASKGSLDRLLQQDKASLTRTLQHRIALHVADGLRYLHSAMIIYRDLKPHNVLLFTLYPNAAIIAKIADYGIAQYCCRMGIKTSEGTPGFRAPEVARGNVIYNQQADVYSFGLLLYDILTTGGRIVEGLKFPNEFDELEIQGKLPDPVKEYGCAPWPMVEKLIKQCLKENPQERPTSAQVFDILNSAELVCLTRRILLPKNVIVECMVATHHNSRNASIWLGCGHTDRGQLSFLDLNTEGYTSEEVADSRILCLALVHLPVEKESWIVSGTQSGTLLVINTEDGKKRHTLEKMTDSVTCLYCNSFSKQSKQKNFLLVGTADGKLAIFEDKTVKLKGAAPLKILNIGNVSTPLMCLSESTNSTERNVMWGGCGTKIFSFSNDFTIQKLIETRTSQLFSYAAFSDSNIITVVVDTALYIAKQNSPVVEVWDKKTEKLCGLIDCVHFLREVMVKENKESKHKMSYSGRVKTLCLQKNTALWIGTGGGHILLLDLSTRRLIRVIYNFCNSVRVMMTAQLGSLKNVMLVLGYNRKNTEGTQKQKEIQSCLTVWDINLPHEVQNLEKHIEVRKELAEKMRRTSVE
T7 sequence (Q13188 whole entry): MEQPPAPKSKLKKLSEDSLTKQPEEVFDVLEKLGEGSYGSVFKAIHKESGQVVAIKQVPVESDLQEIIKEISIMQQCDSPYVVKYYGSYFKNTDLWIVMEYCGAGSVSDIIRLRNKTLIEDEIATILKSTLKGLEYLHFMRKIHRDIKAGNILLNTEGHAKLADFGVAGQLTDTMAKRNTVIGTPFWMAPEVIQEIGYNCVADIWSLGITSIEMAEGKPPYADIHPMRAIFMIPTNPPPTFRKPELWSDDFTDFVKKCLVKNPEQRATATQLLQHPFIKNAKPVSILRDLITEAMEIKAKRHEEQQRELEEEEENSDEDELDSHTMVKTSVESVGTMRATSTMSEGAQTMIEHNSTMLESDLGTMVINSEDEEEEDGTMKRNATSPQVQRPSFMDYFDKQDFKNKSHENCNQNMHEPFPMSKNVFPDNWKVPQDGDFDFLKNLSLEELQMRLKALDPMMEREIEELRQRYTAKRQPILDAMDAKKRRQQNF
T9 sequence (P78356 whole entry): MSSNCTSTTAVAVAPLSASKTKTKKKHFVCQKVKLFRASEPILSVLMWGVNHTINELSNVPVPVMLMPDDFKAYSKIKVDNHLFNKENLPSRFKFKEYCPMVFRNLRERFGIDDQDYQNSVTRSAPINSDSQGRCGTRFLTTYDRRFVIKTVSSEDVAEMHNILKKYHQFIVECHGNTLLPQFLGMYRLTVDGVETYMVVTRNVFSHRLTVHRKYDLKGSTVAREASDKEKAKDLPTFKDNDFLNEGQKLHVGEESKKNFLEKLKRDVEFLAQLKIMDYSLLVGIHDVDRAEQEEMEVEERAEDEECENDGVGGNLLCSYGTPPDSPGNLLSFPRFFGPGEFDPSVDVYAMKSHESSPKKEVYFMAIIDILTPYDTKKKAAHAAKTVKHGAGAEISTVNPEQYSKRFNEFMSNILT
Chain of cellular kinases of SH-SY5Y cells (Homo sapiens, UniProt P09769) (P09769 whole entry): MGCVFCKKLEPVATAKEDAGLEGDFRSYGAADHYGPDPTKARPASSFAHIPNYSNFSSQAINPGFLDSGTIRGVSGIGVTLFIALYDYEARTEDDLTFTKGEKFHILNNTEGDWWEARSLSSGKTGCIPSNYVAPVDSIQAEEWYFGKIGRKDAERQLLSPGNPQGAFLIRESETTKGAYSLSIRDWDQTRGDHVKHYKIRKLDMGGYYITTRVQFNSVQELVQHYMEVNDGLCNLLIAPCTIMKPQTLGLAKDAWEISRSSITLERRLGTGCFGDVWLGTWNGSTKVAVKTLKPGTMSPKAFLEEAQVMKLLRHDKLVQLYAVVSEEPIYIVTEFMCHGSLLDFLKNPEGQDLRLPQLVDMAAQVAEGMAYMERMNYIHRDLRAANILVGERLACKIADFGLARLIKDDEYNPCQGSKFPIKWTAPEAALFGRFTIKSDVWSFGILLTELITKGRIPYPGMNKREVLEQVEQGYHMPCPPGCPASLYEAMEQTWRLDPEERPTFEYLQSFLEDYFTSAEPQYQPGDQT

Cc1cccc(-c2nc(Nc3ccc4ncsc4c3)c3ccccc3n2)n1 [NK140]
KiNativ in-cell binding, MAP3K11 [1]: -55.2 | inhibition at 2 µM [2]: 15.8% | KiNativ in-cell binding, TBK1 [3]: -253.9 | inhibition at 2 µM [4]: -43% | inhibition at 2 µM [5]: -13.4% | inhibition at 2 µM [6]: 29.7% | KiNativ in-cell binding, STRADB [7]: 0.5 | inhibition at 2 µM [8]: -14.7% | inhibition at 2 µM [9]: -8.7% | KiNativ in-cell binding, LYN [10]: -32.9 | inhibition at 2 µM [11]: 6% | inhibition at 2 µM [12]: 31.6% | inhibition at 2 µM ([13]; Labeling Site ATP Loop, GAFGKVYLGQK): 4.2% | inhibition at 2 µM ([13]; Labeling Site Lys1, LYAVKVVK): -7.7% | KiNativ in-cell binding, NEK7 [14]: -3.8 | inhibition at 2 µM [15]: 20.4% | inhibition at 2 µM [16]: 27.3% | inhibition at 2 µM [17]: -13% | KiNativ in-cell binding, DGKA [18]: -19.6 | inhibition at 2 µM [19]: 1.2% | KiNativ in-cell binding, CDK10 [20]: 3.3 | inhibition at 2 µM [21]: -13.4%
